According to ChEMBL document CHEMBL5678818, “Discovery of potent SOS1 inhibitors that block RAS activation via disruption of the RAS-SOS1 interaction” (Proc Natl Acad Sci U S A, 2019):

Columns and labels:
[1] = target: MAP kinase-interacting serine/threonine-protein kinase 1 (Homo sapiens) (UniProt Q9BUB5); assay: Inhibition of MKNK1 (unknown origin) assessed as residual activity at 100 nM by KINOMEscan analysis relative to control
[2] = target: Serine/threonine-protein kinase SBK1 (Homo sapiens) (UniProt Q52WX2); assay: Inhibition of SBK1 (unknown origin) assessed as residual activity at 100 nM by KINOMEscan analysis relative to control
[3] = target: Homeodomain-interacting protein kinase 1 (Homo sapiens) (UniProt Q86Z02); assay: Inhibition of HIPK1 (unknown origin) assessed as residual activity at 100 nM by KINOMEscan analysis relative to control
[4] = tested on: Mast/stem cell growth factor receptor Kit (Homo sapiens), P10721 [A829P]; assay: Inhibition of KIT A829P mutant (unknown origin) assessed as residual activity at 100 nM by KINOMEscan analysis relative to control
[5] = target: Leukocyte tyrosine kinase receptor (Homo sapiens) (UniProt P29376); assay: Inhibition of LTK (unknown origin) assessed as residual activity at 100 nM by KINOMEscan analysis relative to control
[6] = target: Macrophage colony-stimulating factor 1 receptor (Homo sapiens) (UniProt P07333); assay: Inhibition of CSF1R (unknown origin) assessed as residual activity at 100 nM by KINOMEscan analysis relative to control
[7] = target: Proto-oncogene tyrosine-protein kinase receptor Ret (Homo sapiens) (UniProt P07949); assay: Inhibition of RET (unknown origin) assessed as residual activity at 100 nM by KINOMEscan analysis relative to control
[8] = tested on: Mast/stem cell growth factor receptor Kit (Homo sapiens), P10721 [V559D,V654A]; assay: Inhibition of KIT V559D/V654A mutant (unknown origin) assessed as residual activity at 100 nM by KINOMEscan analysis relative to control
[9] = target: Tyrosine-protein kinase BTK (Homo sapiens) (UniProt Q06187); assay: Inhibition of BTK (unknown origin) assessed as residual activity at 100 nM by KINOMEscan analysis relative to control
[10] = target: Mitogen-activated protein kinase kinase kinase 4 (Homo sapiens) (UniProt Q9Y6R4); assay: Inhibition of MAP3K4 (unknown origin) assessed as residual activity at 100 nM by KINOMEscan analysis relative to control
[11] = tested on: Receptor-type tyrosine-protein kinase FLT3 (Homo sapiens), P36888 [R834Q]; assay: Inhibition of FLT3 R834Q mutant (unknown origin) assessed as residual activity at 100 nM by KINOMEscan analysis relative to control
[12] = target: Cyclin-dependent kinase-like 3 (Homo sapiens) (UniProt Q8IVW4); assay: Inhibition of CDKL3 (unknown origin) assessed as residual activity at 100 nM by KINOMEscan analysis relative to control
[13] = target: T1, Serine/threonine-protein kinase Nek11 (Homo sapiens) (UniProt Q8NG66); assay: Inhibition of NEK11 (unknown origin) assessed as residual activity at 100 nM by KINOMEscan analysis relative to control
T1 sequence (whole entry): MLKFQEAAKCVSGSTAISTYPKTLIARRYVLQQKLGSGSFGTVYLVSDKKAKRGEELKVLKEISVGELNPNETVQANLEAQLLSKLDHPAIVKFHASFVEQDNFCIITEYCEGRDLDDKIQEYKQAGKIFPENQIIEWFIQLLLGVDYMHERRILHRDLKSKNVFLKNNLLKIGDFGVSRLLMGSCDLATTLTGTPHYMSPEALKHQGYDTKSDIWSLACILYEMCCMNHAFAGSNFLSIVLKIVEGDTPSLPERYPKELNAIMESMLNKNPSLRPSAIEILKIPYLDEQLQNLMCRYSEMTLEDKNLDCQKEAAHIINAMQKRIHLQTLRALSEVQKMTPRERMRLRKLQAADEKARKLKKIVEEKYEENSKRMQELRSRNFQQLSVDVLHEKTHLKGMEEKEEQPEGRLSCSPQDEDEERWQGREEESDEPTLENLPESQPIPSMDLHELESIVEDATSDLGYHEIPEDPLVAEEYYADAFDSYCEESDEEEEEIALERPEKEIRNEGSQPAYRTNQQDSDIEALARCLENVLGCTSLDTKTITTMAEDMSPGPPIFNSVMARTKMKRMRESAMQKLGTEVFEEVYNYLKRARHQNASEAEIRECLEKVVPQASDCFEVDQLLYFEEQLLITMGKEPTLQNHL

[14] = target: Macrophage colony-stimulating factor 1 receptor (Homo sapiens) (UniProt P07333); assay: Inhibition of autoinhibited CSF1R (unknown origin) assessed as residual activity at 100 nM by KINOMEscan analysis relative to control
[15] = target: Misshapen-like kinase 1 (Homo sapiens) (UniProt Q8N4C8); assay: Inhibition of MINK (unknown origin) assessed as residual activity at 100 nM by KINOMEscan analysis relative to control
[16] = target: Platelet-derived growth factor receptor alpha (Homo sapiens) (UniProt P16234); assay: Inhibition of PDGFRA (unknown origin) assessed as residual activity at 100 nM by KINOMEscan analysis relative to control
[17] = tested on: eIF-2-alpha kinase GCN2 (Homo sapiens), Q9P2K8 [S808G]; assay: Inhibition of GCN2 S808G mutant […] domain (unknown origin) assessed as residual activity at 100 nM by KINOMEscan analysis relative to control
[18] = target: Serine/threonine-protein kinase Nek4 (Homo sapiens) (UniProt P51957); assay: Inhibition of NEK4 (unknown origin) assessed as residual activity at 100 nM by KINOMEscan analysis relative to control
[19] = target: Tyrosine-protein kinase Srms (Homo sapiens) (UniProt Q9H3Y6); assay: Inhibition of SRMS (unknown origin) assessed as residual activity at 100 nM by KINOMEscan analysis relative to control
[20] = target: Serine/threonine-protein kinase 32B (Homo sapiens) (UniProt Q9NY57); assay: Inhibition of YANK2 (unknown origin) assessed as residual activity at 100 nM by KINOMEscan analysis relative to control
[21] = tested on: Receptor-type tyrosine-protein kinase FLT3 (Homo sapiens), P36888 [N841I]; assay: Inhibition of FLT3 N841I mutant (unknown origin) assessed as residual activity at 100 nM by KINOMEscan analysis relative to control
[22] = organism: Homo sapiens; assay: Stabilization of N-terminal His10-tagged recombinant human KRAS G12C/C118S mutant (1 to 169 residues) expressed in Escherichia coli assessed as change in melting temperature at 100 uM with heating from 25 to 85 degreeC by thermal shift assay

Macrophage colony-stimulating factor 1 receptor (Homo sapiens), sequence (P07333 whole entry): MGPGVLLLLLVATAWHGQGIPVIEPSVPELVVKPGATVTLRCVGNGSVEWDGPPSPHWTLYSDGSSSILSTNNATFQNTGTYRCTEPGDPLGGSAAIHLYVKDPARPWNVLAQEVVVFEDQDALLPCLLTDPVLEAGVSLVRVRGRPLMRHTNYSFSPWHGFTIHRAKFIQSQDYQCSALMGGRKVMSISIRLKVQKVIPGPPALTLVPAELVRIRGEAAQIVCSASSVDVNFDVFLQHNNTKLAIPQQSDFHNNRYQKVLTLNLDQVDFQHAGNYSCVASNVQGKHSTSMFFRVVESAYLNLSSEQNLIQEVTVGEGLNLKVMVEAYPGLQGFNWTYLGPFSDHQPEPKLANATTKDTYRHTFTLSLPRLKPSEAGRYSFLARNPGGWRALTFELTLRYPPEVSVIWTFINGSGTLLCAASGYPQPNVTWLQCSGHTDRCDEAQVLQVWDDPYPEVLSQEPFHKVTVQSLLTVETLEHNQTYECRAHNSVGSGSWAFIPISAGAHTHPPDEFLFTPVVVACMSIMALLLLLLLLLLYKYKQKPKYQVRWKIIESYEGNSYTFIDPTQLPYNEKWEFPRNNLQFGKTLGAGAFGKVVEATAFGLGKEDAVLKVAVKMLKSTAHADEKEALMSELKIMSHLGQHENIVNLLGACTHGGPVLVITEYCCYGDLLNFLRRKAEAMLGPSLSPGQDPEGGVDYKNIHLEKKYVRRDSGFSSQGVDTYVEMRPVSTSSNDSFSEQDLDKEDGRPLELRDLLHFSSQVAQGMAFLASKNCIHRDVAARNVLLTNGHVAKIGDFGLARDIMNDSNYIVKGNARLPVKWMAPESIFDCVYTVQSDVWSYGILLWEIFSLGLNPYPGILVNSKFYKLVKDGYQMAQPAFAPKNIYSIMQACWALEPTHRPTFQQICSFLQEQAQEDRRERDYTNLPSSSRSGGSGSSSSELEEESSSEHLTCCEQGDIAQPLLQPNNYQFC
Mitogen-activated protein kinase kinase kinase 4 (Homo sapiens), sequence (Q9Y6R4 whole entry): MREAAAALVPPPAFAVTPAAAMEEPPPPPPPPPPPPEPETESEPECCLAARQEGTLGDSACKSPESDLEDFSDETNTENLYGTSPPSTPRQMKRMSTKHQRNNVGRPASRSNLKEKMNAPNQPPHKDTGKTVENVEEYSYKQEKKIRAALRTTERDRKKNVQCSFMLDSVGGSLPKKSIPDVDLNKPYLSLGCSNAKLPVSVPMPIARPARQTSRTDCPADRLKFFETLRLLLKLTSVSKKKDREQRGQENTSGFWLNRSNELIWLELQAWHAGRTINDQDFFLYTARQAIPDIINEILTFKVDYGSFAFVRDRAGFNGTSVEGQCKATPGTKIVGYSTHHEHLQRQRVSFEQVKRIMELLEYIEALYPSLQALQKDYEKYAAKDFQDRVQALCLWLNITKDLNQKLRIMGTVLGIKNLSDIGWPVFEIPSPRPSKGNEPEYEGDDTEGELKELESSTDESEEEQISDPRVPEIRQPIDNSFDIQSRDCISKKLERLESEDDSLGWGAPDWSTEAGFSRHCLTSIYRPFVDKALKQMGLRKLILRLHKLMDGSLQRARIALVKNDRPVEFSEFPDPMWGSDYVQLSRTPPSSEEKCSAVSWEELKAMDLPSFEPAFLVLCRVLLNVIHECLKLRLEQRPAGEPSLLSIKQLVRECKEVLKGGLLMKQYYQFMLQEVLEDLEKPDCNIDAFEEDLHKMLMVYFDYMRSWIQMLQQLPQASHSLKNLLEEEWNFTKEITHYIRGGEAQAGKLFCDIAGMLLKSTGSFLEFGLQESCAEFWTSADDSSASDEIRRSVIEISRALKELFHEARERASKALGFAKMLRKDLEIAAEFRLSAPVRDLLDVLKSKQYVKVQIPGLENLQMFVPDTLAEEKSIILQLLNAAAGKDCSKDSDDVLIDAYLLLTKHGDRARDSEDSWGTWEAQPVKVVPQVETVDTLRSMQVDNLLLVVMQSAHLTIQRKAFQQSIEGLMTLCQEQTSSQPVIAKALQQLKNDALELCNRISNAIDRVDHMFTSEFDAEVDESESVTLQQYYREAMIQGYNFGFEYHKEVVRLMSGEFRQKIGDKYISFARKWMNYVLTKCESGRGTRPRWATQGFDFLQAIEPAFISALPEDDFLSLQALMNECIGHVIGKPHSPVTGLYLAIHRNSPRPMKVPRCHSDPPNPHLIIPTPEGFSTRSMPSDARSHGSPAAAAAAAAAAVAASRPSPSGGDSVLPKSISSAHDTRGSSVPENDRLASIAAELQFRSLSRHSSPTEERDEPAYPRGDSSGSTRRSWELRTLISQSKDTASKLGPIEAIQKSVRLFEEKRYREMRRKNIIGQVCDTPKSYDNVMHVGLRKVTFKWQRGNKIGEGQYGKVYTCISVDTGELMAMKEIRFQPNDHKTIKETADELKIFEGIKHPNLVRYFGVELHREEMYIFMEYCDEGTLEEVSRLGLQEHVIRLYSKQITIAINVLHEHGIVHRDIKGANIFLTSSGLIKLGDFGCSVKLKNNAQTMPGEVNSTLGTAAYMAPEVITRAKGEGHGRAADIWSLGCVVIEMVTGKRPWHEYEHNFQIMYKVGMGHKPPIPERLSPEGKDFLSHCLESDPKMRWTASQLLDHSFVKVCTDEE
Serine/threonine-protein kinase Nek4 (Homo sapiens), sequence (P51957 whole entry, looked up): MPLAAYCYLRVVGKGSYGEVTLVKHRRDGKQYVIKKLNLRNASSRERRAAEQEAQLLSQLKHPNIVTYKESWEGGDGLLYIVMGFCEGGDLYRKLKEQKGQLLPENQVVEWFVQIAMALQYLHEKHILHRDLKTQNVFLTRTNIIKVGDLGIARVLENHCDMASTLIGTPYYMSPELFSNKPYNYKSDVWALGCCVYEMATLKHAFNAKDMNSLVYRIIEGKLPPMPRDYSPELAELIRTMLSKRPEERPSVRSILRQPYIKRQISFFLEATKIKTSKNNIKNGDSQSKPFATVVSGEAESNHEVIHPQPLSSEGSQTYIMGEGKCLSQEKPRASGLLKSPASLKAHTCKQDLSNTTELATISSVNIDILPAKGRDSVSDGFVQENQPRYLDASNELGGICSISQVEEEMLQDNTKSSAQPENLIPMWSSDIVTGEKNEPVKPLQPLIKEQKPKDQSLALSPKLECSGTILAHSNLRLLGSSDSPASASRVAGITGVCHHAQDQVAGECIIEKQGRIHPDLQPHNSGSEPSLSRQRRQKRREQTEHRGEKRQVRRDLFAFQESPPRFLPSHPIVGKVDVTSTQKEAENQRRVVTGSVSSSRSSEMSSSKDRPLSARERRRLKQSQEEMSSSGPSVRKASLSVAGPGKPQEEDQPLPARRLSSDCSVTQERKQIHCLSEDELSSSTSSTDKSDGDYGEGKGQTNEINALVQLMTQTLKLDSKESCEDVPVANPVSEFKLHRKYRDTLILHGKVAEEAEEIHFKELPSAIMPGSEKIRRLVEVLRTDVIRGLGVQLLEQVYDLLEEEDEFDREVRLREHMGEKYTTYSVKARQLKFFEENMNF
Misshapen-like kinase 1 (Homo sapiens), sequence (Q8N4C8 whole entry, looked up): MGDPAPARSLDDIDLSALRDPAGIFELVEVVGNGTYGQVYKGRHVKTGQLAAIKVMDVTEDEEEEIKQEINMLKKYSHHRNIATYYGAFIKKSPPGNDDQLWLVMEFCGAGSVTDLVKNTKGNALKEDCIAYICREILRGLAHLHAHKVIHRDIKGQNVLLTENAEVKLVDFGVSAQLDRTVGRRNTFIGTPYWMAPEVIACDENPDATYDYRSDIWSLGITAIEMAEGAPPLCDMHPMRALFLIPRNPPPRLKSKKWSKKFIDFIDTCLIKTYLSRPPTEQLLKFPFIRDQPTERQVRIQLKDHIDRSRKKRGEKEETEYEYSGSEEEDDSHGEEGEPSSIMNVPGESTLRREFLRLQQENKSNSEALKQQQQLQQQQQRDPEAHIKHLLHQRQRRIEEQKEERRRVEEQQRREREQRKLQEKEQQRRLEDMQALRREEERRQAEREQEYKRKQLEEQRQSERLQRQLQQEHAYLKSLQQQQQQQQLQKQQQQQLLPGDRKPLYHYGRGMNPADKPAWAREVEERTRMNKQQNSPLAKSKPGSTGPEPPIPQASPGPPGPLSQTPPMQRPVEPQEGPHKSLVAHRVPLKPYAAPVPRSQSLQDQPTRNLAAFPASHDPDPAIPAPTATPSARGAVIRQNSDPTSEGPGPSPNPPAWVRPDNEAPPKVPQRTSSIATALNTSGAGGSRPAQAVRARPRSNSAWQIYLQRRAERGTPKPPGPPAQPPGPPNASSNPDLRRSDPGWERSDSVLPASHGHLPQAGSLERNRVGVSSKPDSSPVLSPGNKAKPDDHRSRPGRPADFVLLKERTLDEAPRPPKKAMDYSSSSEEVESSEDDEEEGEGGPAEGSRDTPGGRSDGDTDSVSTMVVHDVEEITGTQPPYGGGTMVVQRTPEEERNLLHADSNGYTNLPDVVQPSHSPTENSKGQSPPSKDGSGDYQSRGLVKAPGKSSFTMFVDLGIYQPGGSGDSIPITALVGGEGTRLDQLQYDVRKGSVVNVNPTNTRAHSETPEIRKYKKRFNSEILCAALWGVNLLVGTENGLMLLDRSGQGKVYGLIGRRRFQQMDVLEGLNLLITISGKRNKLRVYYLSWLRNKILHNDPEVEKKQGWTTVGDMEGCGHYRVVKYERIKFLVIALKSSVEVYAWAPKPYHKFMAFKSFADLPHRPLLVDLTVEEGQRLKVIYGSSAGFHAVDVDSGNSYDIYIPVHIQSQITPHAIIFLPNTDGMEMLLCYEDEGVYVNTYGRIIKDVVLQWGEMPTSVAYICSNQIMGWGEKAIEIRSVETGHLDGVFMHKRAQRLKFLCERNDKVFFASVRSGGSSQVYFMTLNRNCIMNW

## COc1cc2ncnc(N[C@H](C)c3cccc4ccccc34)c2cc1OC
[1]
  Activity: 61%
[2]
  Activity: 81%
[3]
  Activity: 75%
[4]
  Activity: 96%
[5]
  Activity: 97%
[6]
  Activity: 100%
[7]
  Activity: 86%
[8]
  Activity: 100%
[9]
  Activity: 95%
[10]
  Activity: 68%
[11]
  Activity: 93%
[12]
  Activity: 100%
[13]
  Activity: 79%
[14]
  Activity: 96%
[15]
  Activity: 77%
[16]
  Activity: 100%
[17]
  Activity: 100%
[18]
  Activity: 72%
[19]
  Activity: 79%
[20]
  Activity: 84%
[21]
  Activity: 100%
[22]
  ΔTm: -1.9 °C
